Assay [1] concerns the target T1, BNGR-A24 (Bombyx mori, UniProt B3XXN7).
T1 sequence (B3XXN7 1-391): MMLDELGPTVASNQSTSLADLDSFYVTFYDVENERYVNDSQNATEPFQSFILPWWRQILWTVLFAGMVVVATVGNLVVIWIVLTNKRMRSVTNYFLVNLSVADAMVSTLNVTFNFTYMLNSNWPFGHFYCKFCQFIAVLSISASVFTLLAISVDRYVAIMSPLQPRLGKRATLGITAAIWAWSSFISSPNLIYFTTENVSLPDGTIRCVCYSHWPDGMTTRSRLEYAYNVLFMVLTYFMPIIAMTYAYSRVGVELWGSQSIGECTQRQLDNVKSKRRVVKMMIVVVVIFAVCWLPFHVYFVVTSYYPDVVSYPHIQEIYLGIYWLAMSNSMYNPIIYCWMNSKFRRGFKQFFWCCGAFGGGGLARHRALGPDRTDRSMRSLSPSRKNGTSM
Briefly: cell-based. On the procedure: The assays were performed as previously reported. Briefly, HEK293T cells seeded on a glass-based dish were co-transfected with pME18S plasmids carrying BNGRs and the promiscuous G protein alpha subunit, Gα15. Following 24 h incubation, the transfected cells were loaded with 500 μL of a Ca^2+ indicator solution (2 μM Fluo-4 AM [Dojin Chemicals, Kumamoto, Japan] and 0.01% Pluronic-F 127 [Anaspec, San Jose, CA, USA] in Opti-MEM [Life Technologies]) and incubated at 37°C for 30 min in a dark room. The cells were washed twice with Ringer’s solution and then 800 μL Ringer’s solution was added to the cells. Within a given run time, 100 μL of the following compounds were added sequentially: Ringer’s solution (at 15 s, vehicle control), the peptide of interest or a mixture with its potential competitor (at 60 s), and 100 μM ATP (at 120 s, an experimental control). Fluo-4-derived fluorescence was chronologically monitored using a confocal laser-scanning microscope (FV-1000D; Olympus, Tokyo, Japan), with the preinstalled dye mode for Fluo-3. At least three independent experiments were performed. Dose-response curves were generated and EC50 values were calculated from the obtained fitting curves.
In order to evaluate whether the three TRP receptor candidates, BNGR-A24, -A32, and -A33, function as receptors for B. mori TRPs, the response of these three BNGRs to chemically synthesized TRPs was examined using the Ca^2+ imaging assay.
The response of HEK293T cells co-expressing BNGR-A24 (A) or BNGR-A32 (B) and promiscuous mouse Gα15 to the TRPs was monitored using the Ca^2+ imaging technique. Dose-response curves are depicted as relative fluorescent intensity (mean ± S.D.; n = 3).

The target in assay [2] is T1, BNGR-A24. In words: Competitive binding assay, RR-labeled ligands and CHO cells expressing EGFP-fused BNGR-A24. The conditions noted are these: CHO cells, EGFP-fused BNGR-A24, 4°C. On the procedure: Binding assays were performed as previously reported. Briefly, CHO cells were transfected with 2 μg of pME18S plasmids harboring enhanced green fluorescent protein (EGFP)-fused BNGR cDNA. The binding assay was performed with cells 24 h post transfection. The cells were pre-incubated at 4°C for 30 min prior to the assay to minimize receptor internalization by ligand binding. Following the addition of 50 μL of non-labeled ligand as a potential competitor, 50 μL of RR-labeled ligand was added. Subsequent to incubation at 4°C for 60 min, the cells were washed twice with an ice-cold fixation buffer (4% formaldehyde in PBS) and then 500 μL of the fixation buffer was added. The fluorescence derived from EGFP and RR was observed using a confocal microscope (FV-1000D) with preinstalled dye modes for EGFP and DsRed, respectively. The fluorescent data obtained from six individual cells of at least two independent experiments were analyzed using Fluoview software (Olympus).
Following 30-min exposure of the cells to RR-labeled rITPL or TK-4, both red fluorescence (derived from the RR-labeled ligands) and green fluorescence (derived from EGFP C-terminally fused to BNGR-A24) were observed on the cell surface, indicating ligand-receptor binding (Fig 4). […] In this case, the addition of 20 μM rITPL reduced the ligand-derived signal by approximately 90% compared to that observed without the addition of unlabeled ligand.
Fig 4 In vitro competitive binding assay of rITPL and TK-4 to BNGR-A24. (A–D) Microscopic imaging. The binding of RR-labeled ligands (A and C, rITPL; B and D, TK-4) and CHO cells expressing EGFP-fused BNGR-A24 was examined in the presence of potential competitors (A, TK-4; B, rITPL; C and D, spantide I [SP]). EGFP and RR fluorescences were observed by confocal microscopy. Co-localization is presented as yellow in the merged images (Merge). Representative images of cells from at least two independent experiments are shown. (E–H) Relative fluorescent intensity obtained from experiment images (A)–(D), respectively. […]

Assay [3] deals with BmN cells (BNGR-A24-expressing). In words: Competitive cGMP assay in BmN cells. It counts as cell-based, Bombyx mori. The conditions noted are these: 30 min, IBMX. On the procedure:
BmN cells were plated in 12-well tissue culture plates (2 × 10^5 cells/well; Asahi glass, Yokohama, Japan) and maintained in normal growth medium (TC-100 [Applichem, Darmstadt, Germany], 10% FBS, and 50 μg/mL gentamycin). At 3 days post-seeding, the cells were pre-incubated in 800 μL of assay medium (TC-100 supplemented with 1 mM 1-methyl-3-isobutylxanthine [IBMX; Sigma-Aldrich, Tokyo, Japan]) and 1 mM phenylmethylsulfonyl fluoride for 10 min at 28°C. Following pre-incubation, 100 μL of a potential competitor and 100 μL of the peptide of interest were added sequentially to the medium and incubated at 28°C for 30 min. […] The extracted cAMP and cGMP were quantified in duplicate using a cAMP ELISA kit (Cayman Chemicals, Ann Arbor, MI, USA) and a cGMP EIA system (GE Healthcare, Hino, Japan), respectively. […]
Since ITPL and TK-4 are competitive ligands of BNGR-A24, we hypothesized that TK-4 might inhibit the cGMP signal induced by ITPL via the binding of ITPL to BNGR-A24. To confirm this hypothesis, we added an excess of TK-4 to BmN cells exposed to rITPL and evaluated the stimulatory effect of ITPL on the cGMP signal.
Fig 5 Effects of TK-4, rITPL, and spantide I on cyclic nucleotide levels in BmN cells. Intracellular cGMP (A) and cAMP (B) levels in BmN cells following 30-min incubation with the peptide and reagent of interest at the indicated concentrations were measured. […]

The target in assay [4] is EGFP-fused BNGR-A24 (Bombyx mori neuropeptide G protein-coupled receptor A24) (Bombyx mori) (UniProt B3XXN7).
Assay [5] deals with BNGR-A32 (Bombyx mori neuropeptide G protein-coupled receptor A32) (Bombyx mori).
Assay [6] has as its target EGFP-fused BNGR-A24 (Bombyx mori neuropeptide G protein-coupled receptor A24) (Bombyx mori) (UniProt B3XXN7). Briefly: fluorescent-ligand binding on cells (confocal microscopy); CHO cells expressing EGFP-fused BNGR-A24, pre-incubated at 4°C for 30 min; unlabeled competitor added, then RR-labeled ligand; 4°C for 60 min; washed and fixed (4% formaldehyde in PBS); RR fluorescence normalized by EGFP.

For assay [7], the target named is T1, BNGR-A24. Briefly: Ca2+ imaging assay of BNGR-A24 with competitor added together with the ligand. The class given is cell-based. On the procedure:
The assays were performed as previously reported. […] At least three independent experiments were performed.
Next, we examined the effect of simultaneous addition of spantide I and rITPL on ligand competition. The dose-response curve of 10–300 nM rITPL shifted in a similar manner to that observed for TK-4.
Fig 3 Effect of spantide I on the response of BNGR-A24 to rITPL and TK-4. Spantide I (SP), a potential competitor, was added together with rITPL or TK-4 and the response of BNGR-A24 was monitored using the Ca^2+ imaging assay. Dose-response curves of the responses are presented as relative fluorescent intensity (mean ± S.D.; n = 3). Asterisks indicate significant differences for treatment with the same ligand without spantide I (P < 0.05; Dunnett’s test).

In general, pEC50 refers to −log10 of the EC50, conventionally taken in molar units. Low readings indicate a high EC50, high ones a low EC50.

pEC50: −log10 of the molar value. Peptide text beside a SMILES is read from it.

For `CC[C@H](C)[C@H](N)C(=O)N1CCC[C@H]1C(=O)N[C@@H](CCC(N)=O)C(=O)NCC(=O)N[C@@H](Cc1ccccc1)C(=O)N[C@@H](CC(C)C)C(=O)NCC(=O)N[C@@H](CCSC)C(=O)N[C@@H](CCCNC(=N)N)C(N)=O` [TK-1] (H-IPQGFLGMR-NH2; N-terminus assumed), on BNGR-A24 [1], the pEC50 is 8.15. Still for that read-out and setting: the figure for `CSCC[C@H](NC(=O)[C@H](CC(N)=O)NC(=O)[C@H](C)NC(=O)[C@H](C)N)C(=O)N[C@@H](Cc1c[nH]cn1)C(=O)N[C@@H](CCC(N)=O)C(=O)N[C@@H](Cc1ccccc1)C(=O)N[C@@H](Cc1ccc(O)cc1)C(=O)NCC(=O)N[C@H](C(=O)N[C@@H](CCCNC(=N)N)C(N)=O)C(C)C` [TK-3] (H-AANMHQFYGVR-NH2; N-terminus assumed) is 9.10.

In the case of `CC[C@H](C)[C@H](NC(=O)[C@H](Cc1ccccc1)NC(=O)[C@H](CCCCN)NC(=O)CNC(=O)[C@H](CCCNC(=N)N)NC(=O)[C@@H](NC(=O)[C@H](CO)NC(=O)[C@H](CC(C)C)NC(=O)[C@H](CC(=O)O)NC(=O)[C@H](Cc1ccc(O)cc1)NC(=O)[C@@H]1CCCN1)[C@@H](C)CC)C(=O)NCC(=O)N[C@H](C(=O)N[C@@H](CCCNC(=N)N)C(N)=O)C(C)C` [TK-4] (H-PYDLSIRGKFIGVR-NH2; N-terminus assumed), at BNGR-A24 [2] (1–100 μM unlabeled TK-4 added before RR-labeled rITPL), the “Fluorescence of RR-labeled rITPL on the cell surface” value is recorded as “gradually decreased”. The pEC50 on BNGR-A24 [1] is 9.57. Moreover, the “Effect on rITPL-induced cGMP levels” value in assay [3] (BmN cells exposed to 100 nM rITPL, ≥3 μM TK-4 added as competitor) was “significant decrease”. The “Intracellular cGMP levels” value in assay [3] (BmN cells, peptide alone at concentrations as high as 10 μM, 28°C, cGMP EIA) is recorded as “failed to increase”.

In turn, B. mori tachykinin-related peptide TK-1 came in with an EC50 of the Ca2+ imaging response (Fluo-4) of HEK293T cells co-expressing BNGR-A24 and Galpha15 in assay [4] of 7.1 nM. The same measure, in the same setting: the value for B. mori tachykinin-related peptide TK-2 was 0.49 nM; that for B. mori tachykinin-related peptide TK-3 was 0.79 nM.

As to B. mori tachykinin-related peptide TK-4, in assay [4], the EC50 of the Ca2+ imaging response (Fluo-4) of HEK293T cells co-expressing BNGR-A24 and Galpha15 is 0.27 nM. B. mori tachykinin-related peptide TK-5 came in with an EC50 of the Ca2+ imaging response (Fluo-4) of HEK293T cells co-expressing BNGR-A24 and Galpha15 in assay [4] of 2.3 nM. Besides, the EC50 of the Ca2+ imaging response (Fluo-4) of HEK293T cells co-expressing BNGR-A32 and Galpha15 in assay [5] amounted to 0.48 nM. Molecule “Recombinant B. mori ion transport peptide-like (rITPL) (ligand)” showed a percent reduction of the RR-labeled TK-4 signal at 20 uM rITPL in assay [6] of 90%. As to spantide I, the “Effect on response of BNGR-A24 to rITPL” value on BNGR-A24 [7] (50 μM spantide I added with 10–300 nM rITPL, n = 3, vs no competitor) is on record as “significantly lower”. The “Effect on response of BNGR-A24 to TK-4” value on BNGR-A24 [7] (simultaneous treatment with 10 μM or 50 μM spantide I, n = 3, Dunnett's test P < 0.05) was “significantly decreased”. Moreover, on BNGR-A24 [2] (50 μM spantide I as competitor), the “Fluorescence derived from RR-labeled TK-4” value is listed as “nearly complete quenching” and the “Fluorescence derived from RR-labeled rITPL” value is listed as “nearly complete quenching”.

Source of the values: publication PMC4889062, “Tachykinin-Related Peptides Share a G Protein-Coupled Receptor with Ion Transport Peptide-Like in the Silkworm Bombyx mori” (PLoS ONE, 2016).
